The values below come from US20190000860A1, “USE OF COMPOSITIONS MODULATING CHROMATIN STRUCTURE FOR GRAFT VERSUS HOST DISEASE (GVHD)” (Dana-Farber Cancer Institute, Inc., priority 2014, published 2019).

Series [1] concerns mice with cGVHD. Nature of the series: Pulmonary function tests (lung resistance, elastance, compliance; forced oscillation technique, Scireq Flexivent). It counts as in vivo, mouse (B10.BR recipients). The protocol:
(§1) B10.BR recipients were conditioned with cytoxan on days −3 and −2 (120 mg/kg/day i.p.). On day −1, recipients received TBI by x-ray (8.3 Gy). B6 donor BM was T-cell depleted with anti-Thy1.2 mAb followed by rabbit complement. T-cells were purified from spleens by incubation with biotin-labeled anti-CD19, anti-CD11b, anti-CD11c, anti-NK1.1 and anti-γδTCR (eBioscience), followed by strepavidin beads and depletion with magnetic column (StemCell Technologies). On day 0, recipients received 10×10^6 T cell depleted BM cells with or without allogeneic spleen purified T cells (0.075-0.1×106), Weights of individual mice were recorded weekly. Where indicated, recipients in BM and T cell groups were given EZH2 inhibitor (either JQ-EZH2-5 (75 μg/animal/3 times a week) or JQ1 (50 μg/animal/Daily) in 10% Hydroxypropyl-beta-cyclodextrin and DMSO in a 9:1 ratio) or Bcl 79-6 (50 μg/animal/three times a week) in PBS.
(§2) In particular, B10.BR mice were conditioned with 120 mg/Kg of cyclophosphamide on day −3 and −2 and subjected to total body irradiation (830X) on day −1. On Day 0 mice were transplanted with wild type B6 bone marrow with or without splenocytes or purified splenic T cells. Day 28 following transplantation, mice were either given vehicle control or JQ5 (75 mg/Kg 3× a week) until day 56. On Day 60 mice were subjected to forced oscillation technique on the Scireq Flexivent system. Tissues were harvested and analyzed for collagen deposition by trichrome staining, Ig deposition, presence of germinal centers, germinal center B cells, and T follicular helper cells.
as §2, with “Pulmonary function tests were performed on animals treated with Bcl 79-6. The presence of Germinal Center B cells and fibrosis in lungs were also assessed.” for “In particular,”, “Wild Type” for “wild type”, “Bone” for “bone”, “Bcl6 79-6 (50” for “JQ5 (75”, “Daily)” for “3× a week)”, “cells” for “cells,”

Another series deals with germinal center B cells. Nature of the series: Germinal center B cells in cGVHD mice. It counts as in vivo, mouse (B10.BR recipients). The note with it: for germinal center B cells in the spleens: Table 3 experiment, Bcl6 peptidomimetic every day, Day 28-56 (FIG. 12). The protocol:
as §1, with “9:[…])” for “9:1 ratio) or Bcl 79-6 (50 μg/animal/three times a week)”
as §2
Pulmonary function tests were performed on animals treated with Bcl 79-6. The presence of Germinal Center B cells and fibrosis in lungs were also assessed. B10.BR mice were conditioned with 120 mg/Kg of cyclophosphamide on day −3 and −2 and subjected to total body irradiation (830X) on day −1. […] Tissues were harvested and analyzed for collagen deposition by trichrome staining, Ig deposition, presence of germinal centers, germinal center B cells and T follicular helper cells.

The test system of series [2] is mice with cGVHD. The series can be described thus: Collagen deposition in the lungs (trichrome staining). The note with it: for collagen deposition in the lungs vs Vehicle-treated mice: Table 3 experiment, treatment Day 28-56, JQ5 75 mg/Kg 3 days a week, Bcl6 peptidomimetic every day (FIG. 10, 13). It counts as in vivo, mouse (B10.BR recipients). As to the method: as §1, with “9:[…])” for “9:1 ratio) or Bcl 79-6 (50 μg/animal/three times a week)”
as §2
as §2, with “Pulmonary function tests were performed on animals treated with Bcl 79-6. The presence of Germinal Center B cells and fibrosis in lungs were also assessed.” for “In particular,”, “Wild Type” for “wild type”, “Bone” for “bone”, “Bcl6 79-6 (50” for “JQ5 (75”, “Daily)” for “3× a week)”, “cells” for “cells,”

In series [3] the test system is mice with cGVHD. Nature of the series: Pulmonary function tests (lung resistance, elastance, compliance; forced oscillation technique, Scireq Flexivent). The format is in vivo, mouse (B10.BR recipients). The source holds these as a separate data set.
Series [4] relates to mice with cGVHD. It counts as in vivo. The note with it: for survival after 60 days: mice given BM and T-cells, treatment began 28 days post-transplant (Day 28-56), JQ5 or UNC1999 75 mg/Kg 3 days a week, Bcl6 peptidomimetic every day (Table 3, FIG. 8). As to the method: as §1, with “([…])” for “(75 μg/animal/3 times a week)”, “9:[…])” for “9:1 ratio) or Bcl 79-6 (50 μg/animal/three times a week)”
Animals in this experiment were transplanted with wild-type BM and T-cells and then treated with either Vehicle, EZH2 inhibitor (JQ5 or UNC1999) or Bcl6 inhibitor. Administration of UNC1999 was toxic, resulting in less than 40% survival 63 days post-transplant. (FIG. 8).

Setting [5] is: Table 6 experiment, Bcl6 79-6 50 mg/Kg Daily, day 28 until day 56 (FIG. 19), 50 mg/kg.
Setting [6] is: Table 6 experiment, Bcl6 79-6 50 mg/Kg Daily, day 28 until day 56, measured Day 60 (FIG. 19).
Setting [7] is: additional experiments (not shown), JQ1 treatment.

On to `O=C(O)CC(C(=O)O)N1C(=O)/C(=C2/C(=O)Nc3ccc(Br)cc32)SC1=S` (stereo not shown) [79-6], for which the “pulmonary function (lung resistance, elastance and compliance) vs Vehicle-treated mice” value in the series with mice with cGVHD [1] (Table 3 experiment, treatment Day 28-56, JQ5 75 mg/Kg 3 days a week, Bcl6 peptidomimetic every day (FIG. 9, 11)) is recorded as “improved pulmonary function”. Moreover, in the series with germinal center B cells, the “germinal center B cells in the spleens” value is listed as “reduction”. Moreover, the “germinal center B cells in the spleens” value in the series with germinal center B cells (listed as Bcl6 79-6) is “decreased germinal center B cells”. Also, the “Germinal Center B cells” value in the series on germinal center B cells (setting [5]) was “decreased Germinal Center B cells”. For the same compound, in the series on mice with cGVHD [2], the “collagen deposition in the lungs vs Vehicle-treated mice” value is listed as “decreased”. The “collagen deposition in the lungs vs Vehicle-treated mice” value in the series on mice with cGVHD [2] (listed as Bcl6 79-6) is “decreased collagen deposition”. Also, the “collagen in Trichrome staining (lungs)” value in the series on mice with cGVHD [2] (setting [5]) is listed as “decreased collagen”. For the same compound, in the series on mice with cGVHD [3] (setting [6]), the lung compliance entry is listed as “increase”, the lung elastance entry is given as “decrease”, the lung resistance entry was “decrease” and the pulmonary function result was “Restored pulmonary function”. In the series on mice with cGVHD [4], the “survival after 60 days” value was 100%.

For the compound `Cc1sc2c(c1C)C(c1ccc(Cl)cc1)=N[C@@H](CC(=O)OC(C)(C)C)c1nnc(C)n1-2` [JQ1], in the series on mice with cGVHD [1] (setting [7]), the “compliance in pulmonary function tests vs vehicle-treated control animals” value is listed as “significantly increased”, the “elastance in pulmonary function tests vs vehicle-treated control animals” value was “decreased” and the “resistance in pulmonary function tests vs vehicle-treated control animals” value was “decreased”. Besides, the “collagen deposition in the lungs vs Vehicle-treated control mice” value in the series with mice with cGVHD [2] (Table 4 experiment, JQ1 50 mg/Kg Daily, Day 28-56 (FIG. 15), 50 mg/kg) was “decreased collagen deposition”. For the same compound, the “pulmonary function vs Vehicle-treated control mice” value with mice with cGVHD [3] (Table 4 experiment, JQ1 50 mg/Kg Daily, Day 28-56 (FIG. 14), 50 mg/kg) is reported as “improves pulmonary function”.

As to `CCCc1cc(C)[nH]c(=O)c1CNC(=O)c1cc(-c2ccc(N3CCN(C(C)C)CC3)nc2)cc2c1cnn2C(C)C` [UNC1999], in the series on mice with cGVHD [4], the “survival after 60 days” value is listed as less than 40%. Moreover, in the series on mice with cGVHD [4] (mice given wild-type BM and T-cells, 75 mg/KG UNC1999 3 days a week, Day 28-56 (Table 3, FIG. 8)), the “survival 63 days post-transplant” value is reported as “less than 40%”.
